Measurements: PMC7955072 (Nature Communications, 2021)
Entries after “also recorded” stand apart in the source; their conditions may differ.

Columns and labels:
full-length ScIleRS = full-length ScIleRS (Saccharomyces cerevisiae, UniProt P09436); test: Fluorescence-based thermal shift assay (TSA), full-length ScIleRS wild-type; format: binding; settings: for increase of Tm value of ScIleRS: single ligand (50 μM RM-A, 2 mM L-isoleucine, 2 mM ATP or 50 μM Ile-AMS), Tm without ligand approximately 54 °C; for △Tm: Wild-type, difference between Tm with and without ligands
Method: (§1) Ligand binding usually stabilizes the protein during the thermal denaturation process, and tighter binding usually causes a larger positive shift in the protein melting temperature (Tm)[45]. […] The fluorescence intensity was recorded by a StepOnePlus Real-Time PCR instrument (Life Technologies), and the maximums of the first derivatives were determined to calculate Tm values. Each Tm value was an average of triple assays.

[1] = target: C-terminal truncated ScIleRS (residues 1-984) (Saccharomyces cerevisiae, UniProt P09436); test: Fluorescence-based thermal shift assay (TSA), C-terminal truncated ScIleRS; format: binding; settings: protein bound with copurified Ile-AMP
Method: The binding of RM-A to IleRS and the impact of intermediate analogue (Ile-AMS, MedChemExpress) or substrates on binding were evaluated by the fluorescence-based thermal shift assay (TSA). Ligand binding usually stabilizes the protein during the thermal denaturation process, and tighter binding usually causes a larger positive shift in the protein melting temperature (Tm)[45]. […]. The mixtures were incubated at 25 °C for 10 min and then heated from 25 °C to 95 °C at a rate of 1 °C/min. The fluorescence intensity was recorded by a StepOnePlus Real-Time PCR instrument (Life Technologies), and the maximums of the first derivatives were determined to calculate Tm values. Each Tm value was an average of triple assays.

IleRS = settings: cited from earlier work
ScIleRS D527A = ScIleRS D527A (Saccharomyces cerevisiae, UniProt P09436, D527A); format: binding
Method: as §1

ScIleRS F191A = ScIleRS F191A (Saccharomyces cerevisiae, UniProt P09436, F191A); format: binding
Method: as §1

ScIleRS F48A = ScIleRS F48A (Saccharomyces cerevisiae, UniProt P09436, F48A); format: binding
Method: as §1

ScIleRS F48Y = ScIleRS F48Y (Saccharomyces cerevisiae, UniProt P09436, F48Y); format: binding
Method: as §1

ScIleRS P90A = ScIleRS P90A (Saccharomyces cerevisiae, UniProt P09436, P90A); format: binding
Method: as §1

ScIleRS R454A = ScIleRS R454A (Saccharomyces cerevisiae, UniProt P09436, R454A); format: binding
Method: as §1

ScIleRS R460A = ScIleRS R460A (Saccharomyces cerevisiae, UniProt P09436, R460A); format: binding
Method: as §1

ScIleRS R462A = ScIleRS R462A (Saccharomyces cerevisiae, UniProt P09436, R462A); format: binding
Method: as §1

ScIleRS T572A = ScIleRS T572A (Saccharomyces cerevisiae, UniProt P09436, T572A); format: binding
Method: as §1

ScIleRS V89A = ScIleRS V89A (Saccharomyces cerevisiae, UniProt P09436, V89A); format: binding
Method: as §1

ScIleRS W402A = ScIleRS W402A (Saccharomyces cerevisiae, UniProt P09436, W402A); format: binding
Method: as §1

ScIleRS W449A = ScIleRS W449A (Saccharomyces cerevisiae, UniProt P09436, W449A); format: binding
Method: as §1

ScIleRS W456A = ScIleRS W456A (Saccharomyces cerevisiae, UniProt P09436, W456A); format: binding
Method: as §1

ScIleRS W529A = ScIleRS W529A (Saccharomyces cerevisiae, UniProt P09436, W529A); format: binding
Method: as §1

ScIleRS Y571A = ScIleRS Y571A (Saccharomyces cerevisiae, UniProt P09436, Y571A); format: binding
Method: as §1

ScIleRS del_KMSKS = ScIleRS del_KMSKS (Saccharomyces cerevisiae, UniProt P09436, DEL601-605/K608S/L607G); format: binding
Method: as §1

full-length ScIleRS, sequence (P09436 whole entry): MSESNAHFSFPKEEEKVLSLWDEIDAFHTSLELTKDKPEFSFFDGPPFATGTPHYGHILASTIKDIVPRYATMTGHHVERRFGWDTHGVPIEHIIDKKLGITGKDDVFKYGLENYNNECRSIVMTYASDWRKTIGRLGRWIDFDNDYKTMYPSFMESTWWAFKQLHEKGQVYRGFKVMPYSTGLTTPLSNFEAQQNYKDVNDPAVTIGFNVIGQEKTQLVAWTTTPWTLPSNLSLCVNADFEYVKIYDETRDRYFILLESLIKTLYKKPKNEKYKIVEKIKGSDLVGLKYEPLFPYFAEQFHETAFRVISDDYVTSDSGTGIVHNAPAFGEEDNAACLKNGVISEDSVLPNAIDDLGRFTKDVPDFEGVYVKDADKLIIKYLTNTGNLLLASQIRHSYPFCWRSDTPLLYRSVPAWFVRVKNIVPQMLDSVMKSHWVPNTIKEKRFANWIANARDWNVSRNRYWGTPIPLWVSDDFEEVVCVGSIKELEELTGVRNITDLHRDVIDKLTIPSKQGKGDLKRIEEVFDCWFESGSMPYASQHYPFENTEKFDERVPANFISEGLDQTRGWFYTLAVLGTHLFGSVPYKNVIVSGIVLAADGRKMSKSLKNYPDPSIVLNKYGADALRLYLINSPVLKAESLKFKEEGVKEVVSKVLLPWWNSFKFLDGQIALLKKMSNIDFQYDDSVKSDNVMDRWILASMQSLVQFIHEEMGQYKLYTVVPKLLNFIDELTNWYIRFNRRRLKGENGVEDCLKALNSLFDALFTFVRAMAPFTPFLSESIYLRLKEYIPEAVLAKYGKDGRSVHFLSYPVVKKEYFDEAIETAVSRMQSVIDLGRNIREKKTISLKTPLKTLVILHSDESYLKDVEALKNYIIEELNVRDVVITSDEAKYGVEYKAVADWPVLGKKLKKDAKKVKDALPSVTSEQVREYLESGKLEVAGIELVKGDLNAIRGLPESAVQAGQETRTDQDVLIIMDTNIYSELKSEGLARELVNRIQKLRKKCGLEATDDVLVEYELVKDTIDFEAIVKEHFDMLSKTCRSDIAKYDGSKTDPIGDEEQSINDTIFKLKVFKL
ScIleRS F191A, sequence (P09436 whole entry F191A): as the sequence (P09436 whole entry) above, with F191A counted along it
ScIleRS W529A, sequence (P09436 whole entry W529A): as the sequence (P09436 whole entry) above, with W529A counted along it
ScIleRS del_KMSKS, sequence (P09436 other isoform, or with tags, fused parts or gaps DEL601-605/L607G/K608S): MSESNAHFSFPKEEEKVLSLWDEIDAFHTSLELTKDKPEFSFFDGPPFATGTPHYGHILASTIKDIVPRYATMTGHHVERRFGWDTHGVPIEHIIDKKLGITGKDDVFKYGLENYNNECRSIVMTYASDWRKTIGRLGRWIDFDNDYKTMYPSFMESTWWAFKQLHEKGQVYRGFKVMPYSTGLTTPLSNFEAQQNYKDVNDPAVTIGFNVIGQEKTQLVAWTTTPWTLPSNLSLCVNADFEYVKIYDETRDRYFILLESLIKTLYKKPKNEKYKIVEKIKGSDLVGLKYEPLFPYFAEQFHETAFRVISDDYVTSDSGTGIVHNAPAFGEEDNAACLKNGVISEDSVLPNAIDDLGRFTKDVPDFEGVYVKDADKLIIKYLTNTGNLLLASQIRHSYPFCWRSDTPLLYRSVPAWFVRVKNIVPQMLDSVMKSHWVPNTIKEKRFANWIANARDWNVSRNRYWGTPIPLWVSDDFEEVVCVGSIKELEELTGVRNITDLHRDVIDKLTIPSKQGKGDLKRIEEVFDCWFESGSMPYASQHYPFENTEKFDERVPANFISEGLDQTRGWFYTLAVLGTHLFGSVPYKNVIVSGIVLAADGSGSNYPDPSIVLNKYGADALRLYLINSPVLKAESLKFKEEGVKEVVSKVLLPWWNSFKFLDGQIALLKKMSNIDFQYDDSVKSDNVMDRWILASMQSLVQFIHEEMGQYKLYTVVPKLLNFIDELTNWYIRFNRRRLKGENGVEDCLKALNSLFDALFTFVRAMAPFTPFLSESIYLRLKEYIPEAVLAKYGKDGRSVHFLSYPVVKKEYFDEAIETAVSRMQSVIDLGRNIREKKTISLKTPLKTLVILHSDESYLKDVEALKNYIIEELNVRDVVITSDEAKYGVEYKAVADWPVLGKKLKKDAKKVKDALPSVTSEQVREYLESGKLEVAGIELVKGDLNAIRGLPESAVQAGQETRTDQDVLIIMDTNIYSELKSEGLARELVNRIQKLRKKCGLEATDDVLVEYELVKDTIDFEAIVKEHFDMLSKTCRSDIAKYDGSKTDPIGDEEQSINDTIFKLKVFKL
ScIleRS W456A, sequence (P09436 whole entry W456A): as the sequence (P09436 whole entry) above, with W456A counted along it
ScIleRS W449A, sequence (P09436 whole entry W449A): as the sequence (P09436 whole entry) above, with W449A counted along it
ScIleRS F48Y, sequence (P09436 whole entry F48Y): as the sequence (P09436 whole entry) above, with F48Y counted along it
ScIleRS V89A, sequence (P09436 whole entry V89A): as the sequence (P09436 whole entry) above, with V89A counted along it
ScIleRS F48A, sequence (P09436 whole entry F48A): as the sequence (P09436 whole entry) above, with F48A counted along it
ScIleRS T572A, sequence (P09436 whole entry T572A): as the sequence (P09436 whole entry) above, with T572A counted along it
ScIleRS R462A, sequence (P09436 whole entry R462A): as the sequence (P09436 whole entry) above, with R462A counted along it
ScIleRS Y571A, sequence (P09436 whole entry Y571A): as the sequence (P09436 whole entry) above, with Y571A counted along it
ScIleRS R460A, sequence (P09436 whole entry R460A): as the sequence (P09436 whole entry) above, with R460A counted along it
C-terminal truncated ScIleRS (residues 1-984), sequence (P09436 1-984): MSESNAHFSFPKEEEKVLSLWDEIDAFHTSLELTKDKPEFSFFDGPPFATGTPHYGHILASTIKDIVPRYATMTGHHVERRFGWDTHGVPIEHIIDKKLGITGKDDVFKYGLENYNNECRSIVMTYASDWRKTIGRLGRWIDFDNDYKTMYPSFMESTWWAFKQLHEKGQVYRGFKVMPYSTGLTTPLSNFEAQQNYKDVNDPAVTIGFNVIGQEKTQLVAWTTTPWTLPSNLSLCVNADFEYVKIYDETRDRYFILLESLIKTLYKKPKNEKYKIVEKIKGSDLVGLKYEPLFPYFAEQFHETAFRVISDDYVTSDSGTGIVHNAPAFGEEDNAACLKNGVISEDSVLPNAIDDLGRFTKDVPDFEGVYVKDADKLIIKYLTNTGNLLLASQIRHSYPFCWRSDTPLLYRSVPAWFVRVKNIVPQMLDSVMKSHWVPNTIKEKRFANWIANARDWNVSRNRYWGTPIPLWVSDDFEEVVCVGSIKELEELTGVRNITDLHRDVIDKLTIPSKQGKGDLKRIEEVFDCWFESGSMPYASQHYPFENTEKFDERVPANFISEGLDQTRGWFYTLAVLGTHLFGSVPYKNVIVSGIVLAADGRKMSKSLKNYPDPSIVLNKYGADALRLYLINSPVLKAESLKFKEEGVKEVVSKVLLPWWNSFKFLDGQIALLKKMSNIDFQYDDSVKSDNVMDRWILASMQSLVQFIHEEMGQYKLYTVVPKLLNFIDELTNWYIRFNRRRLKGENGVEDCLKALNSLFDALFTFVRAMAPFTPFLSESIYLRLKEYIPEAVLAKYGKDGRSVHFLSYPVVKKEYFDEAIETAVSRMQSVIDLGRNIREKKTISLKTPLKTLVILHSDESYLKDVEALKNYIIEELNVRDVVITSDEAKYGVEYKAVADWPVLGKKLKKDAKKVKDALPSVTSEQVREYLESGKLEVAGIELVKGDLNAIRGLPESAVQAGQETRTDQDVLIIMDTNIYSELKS
ScIleRS D527A, sequence (P09436 whole entry D527A): as the sequence (P09436 whole entry) above, with D527A counted along it
ScIleRS P90A, sequence (P09436 whole entry P90A): as the sequence (P09436 whole entry) above, with P90A counted along it
ScIleRS R454A, sequence (P09436 whole entry R454A): as the sequence (P09436 whole entry) above, with R454A counted along it
ScIleRS W402A, sequence (P09436 whole entry W402A): as the sequence (P09436 whole entry) above, with W402A counted along it

Molecule	increase of Tm value of ScIleRS (full-length ScIleRS)	Tm value of C-terminal truncated ScIleRS [1]	△Tm (full-length ScIleRS) [°C]	△Tm (ScIleRS D527A) [°C]	△Tm (ScIleRS F191A) [°C]	△Tm (ScIleRS F48A) [°C]	△Tm (ScIleRS F48Y) [°C]	△Tm (ScIleRS P90A) [°C]	△Tm (ScIleRS R454A) [°C]	△Tm (ScIleRS R460A) [°C]	△Tm (ScIleRS R462A) [°C]	△Tm (ScIleRS T572A) [°C]	△Tm (ScIleRS V89A) [°C]	△Tm (ScIleRS W402A) [°C]	△Tm (ScIleRS W449A) [°C]	△Tm (ScIleRS W456A) [°C]	△Tm (ScIleRS W529A) [°C]	△Tm (ScIleRS Y571A) [°C]	△Tm (ScIleRS del_KMSKS) [°C]	other results
Nc1ncnc2c1ncn2[C@@H]1O[C@H](COP(=O)(O)OP(=O)(O)OP(=O)(O)O)[C@@H](O)[C@H]1O [ATP]	approximately 4 °C	not improved	–	–	–	–	–	–	–	–	–	–	–	–	–	–	–	–	–	–
reveromycin T [RM-T]	–	–	–	–	–	–	–	–	–	–	–	–	–	–	–	–	–	–	–	inhibitory activity against IleRS compared with RM-A (IleRS): stronger inhibitory activity; also recorded: even higher inhibitory activity
CC[C@H](C)[C@H](N)C(=O)NS(=O)(=O)OC[C@H]1O[C@@H](n2cnc3c(N)ncnc32)[C@H](O)[C@@H]1O [Ile-AMS]	~23 °C	–	23.4	24.2	26.5	12.5	21.6	22.1	21.6	25.7	26	22.7	24.7	24.2	24.9	18.8	18.4	24.6	20.2	–
CC[C@H](C)[C@H](N)C(=O)O [L-isoleucine]	~8 °C	not improved	7.9	5.2	8.3	0.2	4.4	6.4	6.6	3.1	4	4.8	4.7	6.9	7.8	0.7	1.9	4	8.5	–
CC(/C=C/[C@H](O)[C@@H](C)/C=C/C(=O)O)=C\C[C@H]1O[C@@]2(CC[C@H](C)[C@H](/C=C/C(C)=C/C(=O)O)O2)CC[C@@H]1C [SF-A, Spirofungin A]	–	–	–	–	–	–	–	–	–	–	–	–	–	–	–	–	–	–	–	inhibition of IleRS (IleRS): only weakly inhibit
